Patent US8143304B2, “(3-amino-1,2,3,4-tetrahydro-9 H-carbazol-9-yl)-acetic acid derivatives” (Actelion Pharmaceutical Ltd., priority 2006, dated 2012)

Target: T1, hCRTH2 receptor (Homo sapiens, UniProt Q9Y5Y4)
T1 construct: expressed in transfected cells; host or cells: clonal HEK 293 cell line (membrane preparation)
T1 sequence (Q9Y5Y4 1-395): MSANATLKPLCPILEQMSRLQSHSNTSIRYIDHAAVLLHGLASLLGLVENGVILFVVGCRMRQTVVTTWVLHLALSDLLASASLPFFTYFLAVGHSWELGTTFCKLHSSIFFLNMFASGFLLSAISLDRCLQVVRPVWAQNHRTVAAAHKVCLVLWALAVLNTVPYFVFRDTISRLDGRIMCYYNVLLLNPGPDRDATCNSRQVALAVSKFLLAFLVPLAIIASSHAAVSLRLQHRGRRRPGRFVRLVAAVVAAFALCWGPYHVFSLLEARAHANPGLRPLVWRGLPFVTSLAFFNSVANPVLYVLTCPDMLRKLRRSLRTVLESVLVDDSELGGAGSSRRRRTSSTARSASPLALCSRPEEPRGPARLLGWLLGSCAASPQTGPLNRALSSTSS
Assay: hCRTH2 receptor membranes radioligand binding assay ({3H}-PGD2)
Details: {3H}-PGD2 2.5 nM, membranes of HEK 293 cells expressing recombinant hCRTH2 receptor; read-out: hCRTH2 Bdg IC50
Experimental: The biological effect of such compounds may be tested in a variety of in vitro, ex vivo and in vivo assays.
Biological Assays: Preparation of hCRTH2 Receptor Membranes and Radioligand Binding Assay:
Cells are detached from culture plates in 5 ml buffer A per plate (5 mM Tris, pH 7.4, 1 mM MgCl2, 0.1 mM PMSF, 0.1 mM phenanthroline) using a police rubber and transferred into centrifugation tubes and frozen at −80° C. After thawing, the cells are centrifuged at 500 g for 5 min and then resuspended in buffer A. Cells are then fragmented by homogenization with a Polytron cell homogenizer for 30 s. The membrane fragments are collected by centrifugation at 3000 g for 40 min and resuspended in buffer B (50 mM Tris, pH 7.4, 25 mM MgCl2, 250 mM saccharose) and aliquots are stored at […].
Binding assay is performed in a total volume of 250 μl. […] For unspecific binding, PGD2 is added to the reaction mixture at 1 μM final concentration. This binding assay mix is incubated at rt for 90 min and then filtered through a GF/C filter plate. The filter is washed three times with ice cold binding buffer C. Then, Microscint-40 (Packard, 40 μl/well) is added and the receptor bound radioactivity is quantified by scintillation counting in a “TopCount” benchtop microplate scintillation counter (Packard).

Row | Compound | IC50 [nM]
1 | COc1cccc2c1CC(C(=O)N[C@H]1CCc3c(c4cc(F)ccc4n3CC(=O)O)C1)CC2 (mixture of isomers) [(3S)-(6-Fluoro-3-{[(2RS)-8-methoxy-1,2,3,4-tetrahydro-naphthalene-2-carbonyl]-amino}-1,2,3,4-tetrahydro-9H-carbazol-9-yl)-acetic acid] | 18
2 | COc1cccc(NC(=O)CC(Cc2ccccc2)C(=O)N[C@H]2CCc3c(c4cc(F)ccc4n3CC(=O)O)C2)c1 (mixture of isomers) [(3S)-{3-[(RS)-2-Benzyl-3-(3-methoxy-phenylcarbamoyl)-propionylamino]-6-fluoro-1,2,3,4-tetrahydro-9H-carbazol-9-yl}-acetic acid] | 6
3 | O=C(O)Cn1c2c(c3cc(C(F)(F)F)ccc31)CC(NC(=O)OCc1ccccc1)CC2 (racemic) | 26
4 | O=C(O)Cn1c2c(c3cc(F)cc(Cl)c31)CC(NC(=O)CCc1ccccc1)CC2 (racemic) | 57
5 | O=C(O)Cn1c2c(c3ccccc31)C[C@H](NC(=O)c1ccccc1)CC2 [(3R)-(3-Benzoylamino-1,2,3,4-tetrahydro-9H-carbazol-9-yl)-acetic acid] | 488
6 | O=C(O)Cn1c2c(c3ccccc31)C[C@H](NC(=O)Cc1cccs1)CC2 [(3R)-[3-(2-Thiophen-2-yl-acetylamino)-1,2,3,4-tetrahydro-9H-carbazol-9-yl]-acetic acid] | 297
7 | O=C(O)Cn1c2c(c3ccccc31)C[C@H](NC(=O)CCC1CCCC1)CC2 [(3R)-[3-(3-Cyclopentyl-propionylamino)-1,2,3,4-tetrahydro-9H-carbazol-9-yl]-acetic acid] | 400
8 | O=C(O)Cn1c2c(c3ccccc31)C[C@H](NC(=O)Nc1cccc3ccccc13)CC2 [(3R)-[3-(3-Naphthalen-1-yl-ureido)-1,2,3,4-tetrahydro-9H-carbazol-9-yl]-acetic acid] | 152
9 | O=C(O)Cn1c2c(c3ccccc31)C[C@H](NC(=O)NS(=O)(=O)c1ccccc1)CC2 [(3R)-[3-(3-Phenylsulfonyl-ureido)-1,2,3,4-tetrahydro-9H-carbazol-9-yl]-acetic acid] | 147
10 | Cc1ccc(CCC(=O)N[C@@H]2CCc3c(c4cc(F)ccc4n3CC(=O)O)C2)cc1 [(3R)-[6-Fluoro-3-(3-p-tolyl-propionylamino)-1,2,3,4-tetrahydro-9H-carbazol-9-yl]-acetic acid] | 61
11 | O=C(O)Cn1c2c(c3cc(F)ccc31)C[C@H](NC(=O)CCc1cccc(Cl)c1)CC2 [(3R)-{3-[3-(3-Chloro-phenyl)-propionylamino]-6-fluoro-1,2,3,4-tetrahydro-9H-carbazol-9-yl}-acetic acid] | 39
12 | CC(C)COC(=O)N[C@H]1CCc2c(c3ccccc3n2CC(=O)O)C1 [(3S)-(3-Isobutoxycarbonylamino-1,2,3,4-tetrahydro-9H-carbazol-9-yl)-acetic acid] | 84
13 | CC(=O)N(CCc1ccccc1F)[C@H]1CCc2c(c3cc(F)ccc3n2CC(=O)O)C1 [(3S)-(3-{Acetyl-[2-(2-fluoro-phenyl)-ethyl]-amino}-6-fluoro-1,2,3,4-tetrahydro-9H-carbazol-9-yl)-acetic acid] | 4
14 | COCCN(C(=O)CCc1ccccc1OC)[C@H]1CCc2c(c3cc(F)ccc3n2CC(=O)O)C1 [(3S)-(6-Fluoro-3-{(2-methoxy-ethyl)-[3-(2-methoxy-phenyl)-propionyl]-amino}-1,2,3,4-tetrahydro-9H-carbazol-9-yl)-acetic acid] | 6
15 | O=C(O)Cn1c2c(c3ccccc31)C[C@@H](NC(=O)OCCOCc1ccccc1)CC2 [(3S)-[3-(2-Benzyloxy-ethoxycarbonylamino)-1,2,3,4-tetrahydro-9H-carbazol-9-yl]-acetic acid] | 117
16 | O=C(O)Cn1c2c(c3cc(F)ccc31)C[C@@H](NC(=O)CC(c1ccccc1)c1ccccc1)CC2 [(3S)-[3-(3,3-Diphenyl-propionylamino)-6-fluoro-1,2,3,4-tetrahydro-9H-carbazol-9-yl]-acetic acid] | 2

Row | Compound | IC50 [nM]
17 | O=C(O)Cn1c2c(c3cc(F)ccc31)C[C@@H](NC(=O)CCc1ccc3c(c1)OCO3)CC2 [(3S)-[3-(3-Benzo[1,3]dioxol-5-yl-propionylamino)-6-fluoro-1,2,3,4-tetrahydro-9H-carbazol-9-yl]-acetic acid] | 15
18 | O=C(O)Cn1c2c(c3cc(F)ccc31)C[C@@H](N(CC1CCCCC1)C(=O)NCc1ccccc1)CC2 [(3S)-[3-(3-Benzyl-1-cyclohexylmethyl-ureido)-6-fluoro-1,2,3,4-tetrahydro-9H-carbazol-9-yl]-acetic acid] | 6
19 | CCCCNC(=O)N[C@H]1CCc2c(c3ccccc3n2CC(=O)O)C1 [(3S)-[3-(3-Butyl-ureido)-1,2,3,4-tetrahydro-9H-carbazol-9-yl]-acetic acid] | 896
20 | O=C(O)Cn1c2c(c3cc(F)ccc31)C[C@@H](NC(=O)COc1ccc(Cl)cc1)CC2 [(3S)-{3-[2-(4-Chloro-phenoxy)-acetylamino]-6-fluoro-1,2,3,4-tetrahydro-9H-carbazol-9-yl}-acetic acid] | 9
21 | O=C(O)Cn1c2c(c3cc(F)ccc31)C[C@@H](NC(=O)CCc1ccc(Cl)cc1Cl)CC2 [(3S)-{3-[3-(2,4-Dichloro-phenyl)-propionylamino]-6-fluoro-1,2,3,4-tetrahydro-9H-carbazol-9-yl}-acetic acid] | 16
22 | O=C(O)Cn1c2c(c3cc(F)ccc31)C[C@@H](NC(=O)CCc1cc(C(F)(F)F)ccc1C(F)(F)F)CC2 [(3S)-{3-[3-(2,5-Bis-trifluoromethyl-phenyl)-propionylamino]-6-fluoro-1,2,3,4-tetrahydro-9H-carbazol-9-yl}-acetic acid] | 15
23 | CC(C)(C)OC(=O)Nc1cccc(CCC(=O)N[C@H]2CCc3c(c4cc(F)ccc4n3CC(=O)O)C2)c1 [(3S)-{3-[3-(3-tert-Butoxycarbonylamino-phenyl)-propionylamino]-6-fluoro-1,2,3,4-tetrahydro-9H-carbazol-9-yl}-acetic acid] | 93
24 | O=C(O)Cn1c2c(c3cc(F)ccc31)C[C@@H](NC(=O)C1Cc3ccccc3N1)CC2 (stereo partly drawn) [(3S)-{3-[(2,3-Dihydro-1H-indole-2-carbonyl)-amino]-6-fluoro-1,2,3,4-tetrahydro-9H-carbazol-9-yl}-acetic acid] | 11
25 | CN(C(=O)COCc1ccccc1)[C@H]1CCc2c(c3cc(F)ccc3n2CC(=O)O)C1 [(3S)-{3-[(2-Benzyloxy-acetyl)-methyl-amino]-6-fluoro-1,2,3,4-tetrahydro-9H-carbazol-9-yl}-acetic acid] | 60
26 | O=C(O)Cn1c2c(c3cc(F)ccc31)C[C@@H](NC(=O)CCc1ccccc1O)CC2 [(3S)-{6-Fluoro-3-[3-(2-hydroxy-phenyl)-propionylamino]-1,2,3,4-tetrahydro-9H-carbazol-9-yl}-acetic acid] | 33
27 | O=C(O)Cn1c2c(c3cc(F)ccc31)C[C@@H](NC(=O)CCc1cccc(OC(F)(F)F)c1)CC2 [(3S)-{6-Fluoro-3-[3-(3-trifluoromethoxy-phenyl)-propionylamino]-1,2,3,4-tetrahydro-9H-carbazol-9-yl}-acetic acid] | 47
28 | CS(=O)(=O)c1ccc(CCC(=O)N[C@H]2CCc3c(c4cc(F)ccc4n3CC(=O)O)C2)cc1 [(3S)-{6-Fluoro-3-[3-(4-methanesulfonyl-phenyl)-propionylamino]-1,2,3,4-tetrahydro-9H-carbazol-9-yl}-acetic acid] | 72
29 | CSc1ccc(CCC(=O)N[C@H]2CCc3c(c4cc(F)ccc4n3CC(=O)O)C2)cc1 [(3S)-{6-Fluoro-3-[3-(4-methylsulfanyl-phenyl)-propionylamino]-1,2,3,4-tetrahydro-9H-carbazol-9-yl}-acetic acid] | 14
30 | O=C(O)Cn1c2c(c3cc(F)ccc31)C[C@@H](NC(=O)c1cc3ccccc3[nH]1)CC2 [(3S)-{6-Fluoro-3-[(1H-indole-2-carbonyl)-amino]-1,2,3,4-tetrahydro-9H-carbazol-9-yl}-acetic acid] | 824
31 | C[C@@H](Cc1ccccc1)C(=O)N(CCOc1ccccc1)[C@H]1CCc2c(c3cc(F)ccc3n2CC(=O)O)C1 [(3S)-{6-Fluoro-3-[((S)-2-methyl-3-phenyl-propionyl)-(2-phenoxy-ethyl)-amino]-1,2,3,4-tetrahydro-9H-carbazol-9-yl}-acetic acid] | 21
32 | CCN(C(=O)CCc1ccccc1)[C@H]1CCc2c(c3cc(F)ccc3n2CC(=O)O)C1 [(3S)-{6-Fluoro-3-[ethyl-(3-phenyl-propionyl)-amino]-1,2,3,4-tetrahydro-9H-carbazol-9-yl}-acetic acid] | 16
